# Assay results taken from patent US8993606B2, “Oral formulations for treating metal overload” (FerroKin BioSciences, Inc., priority 2011, dated 2015).
# Like-named read-outs stand apart in the source and are kept apart here.
# Assay: Example 9: single-dose study in healthy human subjects 30-75 mg/kg and 20 mg/kg x 2 (PK)
# Type: in vivo
# Settings: for Vd/F / AUC(0-inf) / AUC(0-t) / Cmax / half-life / Tmax / CL renal: human; for Vd/F / AUC(0-inf) / AUC(0-t) / Cmax / half-life / Tmax: plasma; for Vd/F: read-out: VZ/F; for CL renal: urine and plasma
# Description: Example 9 was a single-dose escalating study in healthy volunteers. The objectives of the study were to assess the safety, tolerability, pharmacokinetic, and pharmacodynamics of single ascending doses of Compound 1. The doses tested were 30, 40, 50, 60, and 75 mg/kg once daily and a regimen of 20 mg/kg twice a day, which extended the range of doses evaluated. This Example confirms the earlier results obtained with higher dosage, as described in Example 7.
# This was a single-center, double-blind, placebo-controlled study of ascending single oral doses of Compound 1. Six cohorts of 8 subjects (30 and 50 mg/kg single doses) or 5 subjects (40, 60, and 75 mg/kg single doses and 20 mg/kg×2 doses at 12 hour intervals) were dosed sequentially with Compound 1. Within each cohort, 7 or 4 subjects received Compound 1 and 1 subject received placebo. Subjects in the 20 mg/kg×2 doses cohort received a dose the evening prior to the study day (Day −1), approximately 12 hours prior to dosing on Day 1. The dose administered on Day −1 followed a 2-hour fast and that on Day 1 a 10-hour fast.
# A total of 36 subjects were enrolled and all subjects completed the study. The 30 subjects that received active drug comprised the pharmacokinetic (PK) analysis population.
# […] subjects receiving a single dose, blood samples for the measurement of the total (free and iron bound complex) plasma concentrations of Compound 1 were collected before and 0.25, 0.5, 0.75, 1, 1.25, 1.5, 2, 2.5, 4, 8, 12, 24, 48, 72, and 96 hours after dosing. Subjects receiving two doses of 20 mg/kg had blood collected prior and 0.5, 1, 1.5, 2, and 2.5 hours after the first dose. After the second dose in the morning of Day 1, the sampling schedule was identical to that used for subjects receiving a single dose.
# In all cohorts, urine was collected in pooled intervals of 0-4, 4-8, 8-12 and 12-24 hours after the dose on Day 1 for the analysis of Compound 1 concentrations.
# [1] = 20 mg/kg × 2 at 12-hour interval
# [2] = oral, 20 mg/kg × 2, for the total dose of 40 mg/kg
compound,measurement,setting,value
"COCCOCCOCCOc1cccc(C2=N[C@@](C)(C(=O)O)CS2)c1O [Compound 1, (S)-4,5-Dihydro-2-[2-hydroxy-3-(3,6,9-trioxadecyloxy)phenyl]-4-methyl-4-thiazolecarboxylate magnesium hydroxide]",CL/F,"20 mg/kg × 2, calculated with total dose of 40 mg/kg",235 ± 96.2 mL/min
same,Ue(0-24),[1],805 ± 208 mg
same,λZ,[1],0.0744 ± 0.0158 h⁻¹
same,dose recovered in the urine over 24-hour post-dose period,30 and 40 mg/kg,approximately 55%
same,Vd/F,"oral, 20 mg/kg × 2, calculated with total dose of 40 mg/kg",208 ± 136 L
same,AUC(0-inf),[2],231 µg·h/mL
same,AUC(0-t),[2],221 µg·h/mL
same,Cmax,"oral, 20 mg/kg × 2 at 12-hour interval, for the second dose",52.9 µg/mL
same,half-life,"oral, 20 mg/kg × 2 at 12-hour interval, read-out: t1/2 (converted)",9.64 ± 2.28 h
same,Tmax,"oral, 20 mg/kg × 2 at 12-hour interval, second dose, median, read-out: tmax",0.75 h
same,Tmax,"oral, across cohorts, read-out: median values for Tmax, range",1 to 1.5 h
same,half-life,"oral, across cohorts, read-out: t1/2, range",8.36 to 18.6 h
same,AUC(0-inf),single oral dose 30 mg/kg,161 µg·h/mL
same,AUC(0-t),single oral dose 30 mg/kg,155 µg·h/mL
same,Cmax,single oral dose 30 mg/kg,68.2 µg/mL
same,Tmax,"single oral dose 30 mg/kg, median, read-out: tmax",1 h
same,Vd/F,single oral dose 30 mg/kg,248 ± 58.8 L
same,half-life,"single oral dose 30 mg/kg, read-out: t1/2 (converted)",12.1 ± 3.05 h
same,AUC(0-inf),single oral dose 40 mg/kg,195 µg·h/mL
same,AUC(0-t),single oral dose 40 mg/kg,205 µg·h/mL
same,Cmax,single oral dose 40 mg/kg,87.9 µg/mL
same,Tmax,"single oral dose 40 mg/kg, median, read-out: tmax",1.38 h
same,Vd/F,single oral dose 40 mg/kg,542 ± 657 L
same,half-life,"single oral dose 40 mg/kg, read-out: t1/2 (converted)",18.6 ± 19.2 h
same,AUC(0-inf),single oral dose 50 mg/kg,236 µg·h/mL
same,AUC(0-t),single oral dose 50 mg/kg,254 µg·h/mL
same,Cmax,single oral dose 50 mg/kg,91.7 µg/mL
same,Tmax,"single oral dose 50 mg/kg, median, read-out: tmax",1.5 h
same,Vd/F,single oral dose 50 mg/kg,338 ± 272 L
same,half-life,"single oral dose 50 mg/kg, read-out: t1/2 (converted)",12.8 ± 7.66 h
same,AUC(0-inf),single oral dose 60 mg/kg,205 µg·h/mL
same,AUC(0-t),single oral dose 60 mg/kg,204 µg·h/mL
same,Cmax,single oral dose 60 mg/kg,82.3 µg/mL
same,Tmax,"single oral dose 60 mg/kg, median, read-out: tmax",1.38 h
same,Vd/F,single oral dose 60 mg/kg,454 ± 363 L
same,half-life,"single oral dose 60 mg/kg, read-out: t1/2 (converted)",11 ± 5.99 h
same,AUC(0-inf),single oral dose 75 mg/kg,247 µg·h/mL
same,AUC(0-t),single oral dose 75 mg/kg,244 µg·h/mL
same,Cmax,single oral dose 75 mg/kg,84.6 µg/mL
same,Tmax,"single oral dose 75 mg/kg, median, read-out: tmax",1.38 h
same,Vd/F,single oral dose 75 mg/kg,342 ± 83.6 L
same,half-life,"single oral dose 75 mg/kg, read-out: t1/2 (converted)",8.36 ± 3.84 h
same,CL renal,"oral, 20 mg/kg × 2 at 12-hour interval, read-out: CLr",131 ± 18.7 mL/min
same,CL renal,"oral, not dependent upon dose, read-out: Renal clearance, average",~140 mL/min
same,CL renal,"single oral dose 30 mg/kg, read-out: CLr",139 ± 13.2 mL/min
same,CL renal,"single oral dose 40 mg/kg, read-out: CLr",152 ± 18 mL/min
same,CL renal,"single oral dose 50 mg/kg, read-out: CLr",103 ± 16.2 mL/min
same,CL renal,"single oral dose 60 mg/kg, read-out: CLr",147 ± 28.2 mL/min
same,CL renal,"single oral dose 75 mg/kg, read-out: CLr",165 ± 42.7 mL/min
same,CL/F,single oral dose 30 mg/kg,239 ± 17.2 mL/min
same,Fe(0-24),single oral dose 30 mg/kg,54.8 ± 8.99 % Dose
same,Ue(0-24),single oral dose 30 mg/kg,"1,260 ± 255.3 mg"
same,λZ,single oral dose 30 mg/kg,0.0615 ± 0.0200 h⁻¹
same,CL/F,single oral dose 40 mg/kg,290 ± 73.8 mL/min
same,Fe(0-24),single oral dose 40 mg/kg,57.1 ± 8.60 % Dose
same,Ue(0-24),single oral dose 40 mg/kg,"1,820 ± 397 mg"
same,λZ,single oral dose 40 mg/kg,0.0677 ± 0.0439 h⁻¹
same,CL/F,single oral dose 50 mg/kg,286 ± 56.1 mL/min
same,Fe(0-24),single oral dose 50 mg/kg,40.2 ± 8.69 % Dose
same,Ue(0-24),single oral dose 50 mg/kg,"1,500 ± 434 mg"
same,λZ,single oral dose 50 mg/kg,0.0664 ± 0.0292 h⁻¹
same,CL/F,single oral dose 60 mg/kg,435 ± 117.0 mL/min
same,Fe(0-24),single oral dose 60 mg/kg,33.7 ± 8.37 % Dose
same,Ue(0-24),single oral dose 60 mg/kg,"1,713 ± 480 mg"
same,λZ,single oral dose 60 mg/kg,0.0786 ± 0.0393 h⁻¹
same,CL/F,single oral dose 75 mg/kg,540 ± 237 mL/min
same,Fe(0-24),single oral dose 75 mg/kg,35.0 ± 15.1 % Dose
same,Ue(0-24),single oral dose 75 mg/kg,"2,199 ± 1,189 mg"
same,λZ,single oral dose 75 mg/kg,0.0943 ± 0.0383 h⁻¹
same,dose recovered in the urine over 24-hour post-dose period,"the 3 higher doses (50, 60, 75 mg/kg)",approximately 38%
